Assay results published in patent publication US20070037785A1, “Novel dipeptidyl peptidase IV inhibitors used for functionally influencing different cells and treating immunological, infammatory, neuronal, and other diseases” (priority 2003, published 2007).

Target: dipeptidyl peptidase IV (Homo sapiens, UniProt P27487)
Assay: biochemical
Conditions: values marked with "*" are ID50 values; read-out: IC50DPIV, values marked with "*" = ID50

Sequence of dipeptidyl peptidase IV (P27487 whole entry, species assumed): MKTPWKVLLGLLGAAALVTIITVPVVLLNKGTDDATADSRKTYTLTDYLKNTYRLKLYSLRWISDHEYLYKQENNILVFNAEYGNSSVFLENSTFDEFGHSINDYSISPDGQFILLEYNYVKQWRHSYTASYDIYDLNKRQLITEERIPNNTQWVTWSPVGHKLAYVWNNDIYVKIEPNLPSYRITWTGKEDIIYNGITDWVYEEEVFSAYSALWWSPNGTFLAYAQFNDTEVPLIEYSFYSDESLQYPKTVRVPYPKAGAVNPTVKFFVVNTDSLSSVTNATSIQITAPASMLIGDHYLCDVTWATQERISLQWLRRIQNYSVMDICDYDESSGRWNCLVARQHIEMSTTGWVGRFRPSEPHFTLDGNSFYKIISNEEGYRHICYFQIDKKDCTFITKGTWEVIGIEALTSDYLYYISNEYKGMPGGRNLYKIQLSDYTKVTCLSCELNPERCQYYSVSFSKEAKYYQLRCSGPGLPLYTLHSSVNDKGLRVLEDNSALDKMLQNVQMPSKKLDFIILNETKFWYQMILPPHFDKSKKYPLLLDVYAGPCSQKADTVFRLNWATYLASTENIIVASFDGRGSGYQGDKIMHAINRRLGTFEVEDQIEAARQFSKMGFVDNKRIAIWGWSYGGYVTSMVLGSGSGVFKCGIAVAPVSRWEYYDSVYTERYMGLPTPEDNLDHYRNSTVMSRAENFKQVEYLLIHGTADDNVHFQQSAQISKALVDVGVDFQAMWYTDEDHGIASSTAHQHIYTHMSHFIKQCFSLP

| SMILES | IC50 [µM] |
| --- | --- |
| CCC(=O)Oc1cccc(N2C(=O)C3C4C=CC(C3C2=O)C2C(=O)N(c3cccc(OC(=O)CC)c3)C(=O)C42)c1 (stereo not drawn) [D3.045] | 4.2 |
| COC(=O)c1cccc(NC(=O)/C(=C\c2ccc3c(c2)OCO3)NC(=O)c2ccc(Br)o2)c1 [D12.043] | 92.2 |
| Cc1ccc(-n2c(SCC(=O)c3ccccc3)nc3sc4c(c3c2=O)CC(C(C)C)OC4)cc1 (stereo not drawn) [D3.102] | 209 |
| N/C(=N/[N+](=O)[O-])N/N=C/c1ccc(-c2cccc(Cl)c2Cl)o1 [D10.142] | 609 |
| C=CCOC(=O)C1=CS(=O)(=O)c2ccccc21 [D3.105] | 252 |
| COc1ccc(N(C(C)C(=O)N/N=C/c2ccc(Cl)cc2Cl)S(C)(=O)=O)cc1 (stereo not drawn) [D9.001] | 2.9 |
| N#C/C(=C\c1ccc(-c2ccc(Cl)cc2)o1)C(=O)Nc1cccc([N+](=O)[O-])c1 [D4.114] | 394 |
| COc1ccc(/C=C2\C(=O)N(c3ccccc3)C3=C2C(c2ccc(Br)cc2)N(c2ccccc2)C3=O)cc1 (stereo not drawn) [D12.047] | 198 |
| Cc1cccc(NCC(=O)N/N=C/c2cc(Br)c(O)c(O)c2Br)c1 [D10.094] | 65.5 |
| CCOC(=O)O/N=C(N)/C(N)=N/OC(=O)OCC [D2.006] | 133 |
| CCOC(=O)c1c(CNC(=O)CN2CCN(c3nc4c([nH]3)c(=O)[nH]c(=O)n4C)CC2)[nH]c2ccc(F)cc12 [D5.043] | 69.8 |
| CCN(CC)c1ccc(/C=C(/NC(=O)c2ccccc2)C(=O)N/N=C/c2ccc(-c3ccc([N+](=O)[O-])cc3)o2)cc1 [D10.138] | 418 |
| CCn1c2ccccc2c2ccc(/C=N/NC(=O)c3ccc([N+](=O)[O-])cc3)cc21 [D7.001] | 165 |
| O=C(N/N=C/c1ccccc1O)c1cc(-c2ccc3ccccc3c2)n[nH]1 [D10.130] | 255 |
| COc1ccc(NC(=O)CSc2nnc3n2-c2sc4c(c2C(=O)C3CCc2ccccc2)CC(C)(C)OC4)cc1 (stereo not drawn) [D6.126] | 284 |
| O=C(CCCOc1ccc(Cl)cc1Cl)N/N=C1/C(=O)Nc2ccc(Br)cc21 [D10.121] | 204 |
| CCC(O)(CC)C(=O)NN(C(=O)CNS(=O)(=O)c1ccc(C)cc1)c1ccccc1 [D14.007] | 456 |
| COc1ccc(OCC(=O)N/N=C/c2ccc(OC)c(Br)c2)c(Br)c1 [D10.120] | 197 |

Same assay, conditions: values without "*" = IC-50; read-out: IC50DPIV

| SMILES | IC50 [µM] |
| --- | --- |
| C/C(=N\NC(=O)CSCc1ccccc1Br)c1ccc(I)cc1 [D10.022] | 13.2 |
| Cc1ccc(C(=O)N/C(=C\c2ccco2)C(=O)N2CCOCC2)cc1C [D5.033] | 46.5 |
| CCSc1nnc2n(-c3ccc(OC)cc3)c(=O)c3c4c(sc3n12)CCCC4 [D3.013] | 10.8 |
| N#Cc1c(NC(=O)C(C(F)(F)F)C(F)(F)F)sc2c1CCCC2 [D6.058] | 39.5 |
| CN(C)c1ccc(/C=C(\NC(=O)c2ccccc2)C(=O)N/N=C/c2cc(/N=N/c3ccccc3)ccc2O)cc1 [D10.051] | 33.9 |
| CCOC(=O)c1c(C)oc2c1c1c(c3ccccc32)OCN(C2CCS(=O)(=O)C2)C1 (stereo not drawn) [D9.006] | 34.2 |
| CCOC(=O)C(NC(=O)c1ccc(OC)cc1)(N1CCOCC1)C(F)(F)F (stereo not drawn) [D5.021] | 29.2 |
| Cc1cc(-c2ccc(/C=C(\C#N)c3nc4ccccc4[nH]3)o2)ccc1[N+](=O)[O-] [D3.096] | 138 |
| CC1CCN(C(=O)/C(=C\c2ccco2)NC(=O)c2ccc(Cl)cc2)CC1 [D12.004] | 18.5 |
| CC1CCN(C(=O)/C(=C\c2ccco2)NC(=O)c2ccc(Cl)cc2)CC1 [D6.027] | 18.5 |
| COc1ccc(/C(C)=N/NC(=O)CNc2ccc3ccccc3c2)cc1OC [D10.053] | 32.9 |
| COc1ccc(C2(N3CCCC3)Oc3ccccc3C(C#Cc3ccccc3)=C2C)cc1 (stereo not drawn) [D4.071] | 60.7 |
| CC1=C(C#N)C(=O)N(CCc2ccccc2)C(=O)/C1=C/c1ccc(-c2ccc(S(N)(=O)=O)cc2)o1 [D4.057] | 48.2 |
| Cc1cccc(-n2c(=O)c3c4c(sc3n3c(SC(C)C(=O)N5CCOCC5)nnc23)COC(C(C)C)C4)c1 (stereo not drawn) [D3.012] | 10.1 |
| COc1ccc(N2CCN(c3nc4c(c(=O)[nH]c(=O)n4C)n3Cc3ccccc3)CC2)cc1 [D5.020] | 19.2 |
| N#Cc1ccc(/C=N/NC(=O)c2ccccc2[N+](=O)[O-])cc1 [D10.091] | 62.2 |
| COc1cccc(/C=N/NC(=O)c2cc(-c3cccc([N+](=O)[O-])c3)n[nH]2)c1O [D10.108] | 110 |
| CCOc1ccc(/C=N/NC(=O)c2cc(-c3c(OC)ccc4ccccc34)n[nH]2)cc1 [D4.068] | 56.2 |
| Cc1ccc(C(=O)C2(C)N(O)C(C)C(c3cccs3)=[N+]2[O-])cc1 (stereo not drawn) [D6.053] | 34.1 |
| Cc1ccc(S(=O)(=O)CNC(=S)c2ccc3ccccc3c2)cc1 [D9.002] | 14.5 |
| Nc1ccc2c(c1)C/C(=C\c1ccco1)C2=O [D3.070] | 27.5 |
| CCOc1ccc(/C=N/NC(=O)c2cc(-c3c(OC)ccc4ccccc34)n[nH]2)cc1 [D10.083] | 56.3 |
| C=CCOC(=O)c1cc(-c2ccc(/C=C3/C(=O)N(CCCO)C(=O)C(C#N)=C3C)o2)ccc1Cl [D4.054] | 44.6 |

| SMILES | IC50 [µM] |
| --- | --- |
| CCCn1c(N2CCN(CC(=O)c3c(C)n(C)c4ccccc34)CC2)nc2c1c(=O)[nH]c(=O)n2C [D3.027] | 15.2 |
| N#CC1=C(N)C(C#N)(C#N)C(c2ccccc2F)C2CNCC=C12 (stereo not drawn) [D4.009] | 7.4 |
| Cc1ccc(S(=O)(=O)CNC(=S)c2ccc3ccccc3c2)cc1 [D3.019] | 14.5 |
| COc1ccc(N2CCN(c3nc4c(c(=O)[nH]c(=O)n4C)n3Cc3ccccc3)CC2)cc1 [D4.024] | 19.2 |
| CC1=C(C#N)C(=O)N(CCCO)C(=O)/C1=C\c1ccc(-c2cc(C)c(C)cc2[N+](=O)[O-])o1 [D4.046] | 34.8 |
| O=C1c2ccc(-c3nc4ccccc4c(=O)o3)cc2C(=O)N1c1ccc(Cc2ccc(N3C(=O)c4ccc(-c5nc6ccccc6c(=O)o5)cc4C3=O)cc2)cc1 [D4.037] | 27.7 |
| COCC(=O)CC(N)c1ccc(C)cc1 (stereo not drawn) [D13.002] | 23.3 |
| CCC(=O)Oc1ccc(/C=N/NC(=O)c2ccccc2[N+](=O)[O-])c(OC(=O)CC)c1 [D10.005] | 6.6 |
| CCC(=O)Oc1ccc(C(=O)Nc2ccc(OCC(=O)O)cc2)cc1 [D3.025] | 23.8 |
| Cc1cccc(-n2c(=O)c3c4c(sc3n3c(CC(C)C(=O)N5CCOCC5)nnc23)COC(C(C)C)C4)c1 (stereo not drawn) [D6.012] | 10.1 |
| COc1ccc(CCN(C)c2ccc(N3C(=O)CCCC3=O)cc2[N+](=O)[O-])cc1OC [D4.062] | 52.6 |
| Cc1cccc(C2N(CC(C)C)CC(C(=O)c3c(C)cccc3C)N2CCCN2CCCC2=O)c1 (stereo not drawn) [D4.010] | 7.5 |
| O=C1CSCC(=O)N1c1cc(Cl)cc(Cl)c1 [D4.011] | 8.5 |
| CC(N)C(CC(=O)O)c1ccccc1 (stereo not drawn) [D13.003] | 38 |
| COc1cc(Br)ccc1OCC(=O)N/N=C/c1cc(Br)c(O)c(O)c1Br [D10.067] | 45 |
| CCOc1cc(/C=N/NC(=O)c2cc(-c3ccco3)n[nH]2)ccc1O [D10.099] | 84.9 |
| CC(C)(C)S(=O)(=O)C1=CN2C3=C(CCCC3)NC2C=C1 (stereo not drawn) [D6.020] | 15.6 |
| COc1cc(/C=N/NC(=O)c2ccco2)cc(OC)c1OC(C)=O [D10.041] | 21.8 |
| C/C(=N\NC(=O)c1cc(C(C)(C)C)n[nH]1)c1ccc(Cl)cc1 [D10.081] | 55.7 |
| CCCC(=O)O/N=C1\C(=O)N(c2ccccc2)c2ccccc21 [D4.020] | 15.2 |
| CC1=C(C#N)C(=O)N(CCCO)C(=O)/C1=C\c1ccc(-c2cc(C)c(C)cc2[N+](=O)[O-])o1 [D6.055] | 34.8 |
| N#Cc1c(NC(=O)c2ccccc2)sc2c1CCCCC2 [D3.042] | 33 |
